Values belong to the compound of their own block, whether it stands above or below them. Calls of active or inactive are those of the source.
Columns and labels:
[1] = Late stage counterscreen for inhibitors of Trypanosoma brucei methionyl tRNA synthetase (MetRS): Luminescence-based cell-based high throughput dose response assay to identify compounds that are cytotoxic to Jurkat human T lymphocyte cells.; assay type: functional
cells [2] = conditions: A549
[3] = Luminescence Cell-Based Dose Retest to Confirm Inhibitors of Cancer Stem Cells. [Related pubchem assays (depositor defined):AID2717, AID2721]; assay type: functional; conditions: Homo sapiens
[4] = viability loss in HepG2 liver cells – cell-based, ATP luminescence, cherry-pick, set 6, cytotoxicity control, dose response (AID 1053125); assay type: functional
Kallikrein-7 = Kallikrein-7 (Homo sapiens, UniProt P49862); test: Fluorescence Intensity-based biochemical primary high throughput dose response assay to identify activators of kallikrein-7 (K7) zymogen.
[5] = rescue of ΔF508 CFTR function, airway epithelium – human bronchial epithelial cells, plate reader, cherry-pick, two tests, dose response (AID 743267); assay type: functional, cell-based
[6] = molecular target: T1, Trace amine-associated receptor 1 (Homo sapiens, UniProt Q96RJ0); test: Counterscreen for agonists of the human trace amine associated receptor 1 (hTAAR1): Fluorescence-based cell-based high throughput dose response assay to identify hTAAR1 agonist that also desensitize TAAR1 receptor response.; assay type: functional
[7] = molecular target: T1, Trace amine-associated receptor 1; test: Fluorescence-based cell-based high throughput dose response assay to identify agonists of the human trace amine associated receptor 1 (TAAR1).; assay type: functional
cells [8] = assay type: functional, cell-based
cells [9] = assay type: functional, cell-based; remark: listed apart in the source
[10] = molecular target: T2, Scavenger receptor class B member 1 (Mus musculus, UniProt Q61009); test: blockers of DiI-HDL lipid transfer via SR-BI – cell-based, ldlA[mSR-BI] CHO, DiI fluorescence, dry powder, set 10, dose response (AID 624029); assay type: functional
T2 sequence (Q61009 whole entry): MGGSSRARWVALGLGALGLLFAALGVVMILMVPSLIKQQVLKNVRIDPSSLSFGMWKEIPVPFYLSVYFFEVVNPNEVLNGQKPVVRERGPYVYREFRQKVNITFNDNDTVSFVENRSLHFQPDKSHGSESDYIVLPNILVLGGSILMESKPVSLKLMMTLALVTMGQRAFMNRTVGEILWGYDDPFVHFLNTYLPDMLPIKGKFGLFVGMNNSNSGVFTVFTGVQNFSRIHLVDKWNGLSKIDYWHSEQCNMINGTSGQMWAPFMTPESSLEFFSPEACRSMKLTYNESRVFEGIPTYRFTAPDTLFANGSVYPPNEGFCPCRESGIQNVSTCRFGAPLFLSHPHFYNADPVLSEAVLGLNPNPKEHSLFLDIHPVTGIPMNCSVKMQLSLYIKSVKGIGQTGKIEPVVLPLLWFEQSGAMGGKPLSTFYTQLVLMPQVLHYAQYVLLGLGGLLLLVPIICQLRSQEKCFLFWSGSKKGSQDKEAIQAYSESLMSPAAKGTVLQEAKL

[11] = molecular target: T2, Scavenger receptor class B member 1; test: mouse SR-BI DiI-HDL transfer blockers – ldlA[mSR-BI] CHO cells, fluorescence plate reader, dry powder, set 9, dose response (AID 623880); assay type: functional, cell-based
HEK293 = test: viability loss in HEK293T cells – cell-based, ATP luminescence, cherry-pick samples, cytotoxicity control, dose response (AID 687005); assay type: functional; conditions: Homo sapiens;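 note: cells exposed to compound for 48 hours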
[12] = HEK293 Cytotoxicity Assay Measured in Cell-Based System Using Plate Reader - 7071-01_Inhibitor_Dose_CherryPick_Activity_Set2.; assay type: functional

T1 sequence (Q96RJ0 whole entry): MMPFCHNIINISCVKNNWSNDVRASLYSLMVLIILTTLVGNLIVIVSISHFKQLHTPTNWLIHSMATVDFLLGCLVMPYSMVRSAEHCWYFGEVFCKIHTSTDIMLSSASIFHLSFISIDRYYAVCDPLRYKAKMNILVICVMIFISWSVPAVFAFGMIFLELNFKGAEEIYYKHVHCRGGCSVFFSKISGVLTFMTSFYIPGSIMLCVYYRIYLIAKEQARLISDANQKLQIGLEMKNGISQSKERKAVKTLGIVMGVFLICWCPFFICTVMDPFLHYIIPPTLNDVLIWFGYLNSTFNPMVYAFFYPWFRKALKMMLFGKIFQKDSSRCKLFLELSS
Chain of Kallikrein-7 (P49862 whole entry): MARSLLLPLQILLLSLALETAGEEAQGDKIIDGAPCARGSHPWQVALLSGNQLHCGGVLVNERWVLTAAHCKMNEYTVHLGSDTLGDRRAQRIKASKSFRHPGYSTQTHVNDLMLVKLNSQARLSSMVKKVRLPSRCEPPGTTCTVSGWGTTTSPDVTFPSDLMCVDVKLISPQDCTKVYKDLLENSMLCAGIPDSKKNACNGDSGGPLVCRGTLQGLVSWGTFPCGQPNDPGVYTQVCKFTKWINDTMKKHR

SMILES: O=C(CC(=O)Nc1cccc(Cl)c1)NN=Cc1ccccc1
- IC50 [1]: > 83.3 µM (inactive)

SMILES: CCCCCCc1cc2cc(S(=O)(=O)c3ccc(C)cc3)c(=O)oc2cc1O
- AC50 (cells [2]): 37.9 µM (active)
- AC50 [3]: 2.46 µM (active)
- AC50 [4]: > 52 µM (inactive)

- EC50 (Kallikrein-7): > 69.5 µM (inactive)
SMILES: Cc1cc(=O)oc2c3c(cc(OCC(=O)NCc4ccncc4)c12)OC(C)(C)CC3

SMILES: CC(C)Oc1[nH]cnc2c3ccccc3nc1-2
- AC50 [5]: 9.38 µM (active)

SMILES: Cc1ccc2cc(CNCCc3ccccc3C)c(O)nc2c1
- IC50 [6]: 3.54 µM (active)
- EC50 [7]: 2.34 µM (active)
- EC50 (cells [8]): > 29.9 µM (inactive)
- IC50 (cells [9]): > 29.9 µM (inactive)

- AC50 [10]: 0.0313 µM (active)
- AC50 [11]: 0.0155 µM (active)
SMILES: C[C@@H]1CN([C@H](C)CO)C(=O)c2cc(NC(=O)Cc3cn(C)c4ccccc34)ccc2O[C@H]1CN(C)S(=O)(=O)c1ccc(Cl)cc1

SMILES: CCC(=O)N1[C@@H]2Cn3c(cccc3=O)[C@H]1[C@@H](C(=O)NCc1ccccc1)[C@@H]2CO
- AC50 (HEK293): 30.2 µM (active)
- AC50 [12]: 30.2 µM (active)

— ChEMBL document CHEMBL1201862, “PubChem BioAssay data set” (2004)
